The source of these data is ChEMBL document CHEMBL3632469, “Discovery of dihydroquinazolinone derivatives as potent, selective, and CNS-penetrant M(1) and M(4) muscarinic acetylcholine receptors agonists” (Bioorg Med Chem Lett, 2015).

Holding throughout (assay type): functional, cell-based
Assay [1] deals with T1, Muscarinic acetylcholine receptor M1 (Homo sapiens) (UniProt P11229).
T1 sequence (whole entry): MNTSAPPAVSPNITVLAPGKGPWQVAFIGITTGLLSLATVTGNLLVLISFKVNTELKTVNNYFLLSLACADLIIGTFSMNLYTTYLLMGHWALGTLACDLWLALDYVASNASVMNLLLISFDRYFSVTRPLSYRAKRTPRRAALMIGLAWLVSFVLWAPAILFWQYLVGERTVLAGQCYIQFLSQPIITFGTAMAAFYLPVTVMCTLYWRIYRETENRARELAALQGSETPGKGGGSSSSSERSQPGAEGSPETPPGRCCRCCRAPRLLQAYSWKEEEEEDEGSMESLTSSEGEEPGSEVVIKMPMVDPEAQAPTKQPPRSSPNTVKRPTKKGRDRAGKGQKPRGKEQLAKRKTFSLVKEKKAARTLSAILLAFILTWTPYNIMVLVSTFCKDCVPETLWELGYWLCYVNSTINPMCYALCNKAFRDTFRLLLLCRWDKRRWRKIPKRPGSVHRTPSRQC
As to the kind of experiment: Agonist activity at human muscarinic M1 acetylcholine receptor expressed in CHO cells assessed as calcium mobilization at 0.3 uM by FLIPR assay. (Calcium assays in cells follow changes in intracellular calcium, usually with a dye or a luminescent sensor.)

The target in assay [2] is Muscarinic acetylcholine receptor M3 (Homo sapiens) (UniProt P20309). As to the kind of experiment: Agonist activity at human muscarinic M3 acetylcholine receptor expressed in CHO cells assessed as calcium mobilization at 0.3 uM by FLIPR assay.
Assay [3] addresses T2, Muscarinic acetylcholine receptor M5 (Homo sapiens) (UniProt P08912).
T2 sequence (whole entry): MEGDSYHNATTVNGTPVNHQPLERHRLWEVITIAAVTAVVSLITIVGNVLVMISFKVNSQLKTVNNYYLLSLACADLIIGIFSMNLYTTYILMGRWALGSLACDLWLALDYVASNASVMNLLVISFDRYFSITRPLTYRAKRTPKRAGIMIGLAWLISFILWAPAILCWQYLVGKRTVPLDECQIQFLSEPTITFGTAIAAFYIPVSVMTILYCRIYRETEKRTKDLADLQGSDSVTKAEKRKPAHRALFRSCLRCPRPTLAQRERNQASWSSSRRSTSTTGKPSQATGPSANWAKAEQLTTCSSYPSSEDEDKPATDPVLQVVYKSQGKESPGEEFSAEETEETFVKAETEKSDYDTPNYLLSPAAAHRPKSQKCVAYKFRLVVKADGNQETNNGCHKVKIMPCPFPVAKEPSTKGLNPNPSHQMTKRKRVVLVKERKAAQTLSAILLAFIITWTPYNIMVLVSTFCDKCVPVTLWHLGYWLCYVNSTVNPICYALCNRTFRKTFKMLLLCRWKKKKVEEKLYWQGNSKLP
As to the kind of experiment: Agonist activity at human muscarinic M5 acetylcholine receptor expressed in CHO cells assessed as calcium mobilization at 10 uM by FLIPR assay.

For assay [4], the target named is T3, Muscarinic acetylcholine receptor M4 (Homo sapiens) (UniProt P08173).
T3 sequence (whole entry): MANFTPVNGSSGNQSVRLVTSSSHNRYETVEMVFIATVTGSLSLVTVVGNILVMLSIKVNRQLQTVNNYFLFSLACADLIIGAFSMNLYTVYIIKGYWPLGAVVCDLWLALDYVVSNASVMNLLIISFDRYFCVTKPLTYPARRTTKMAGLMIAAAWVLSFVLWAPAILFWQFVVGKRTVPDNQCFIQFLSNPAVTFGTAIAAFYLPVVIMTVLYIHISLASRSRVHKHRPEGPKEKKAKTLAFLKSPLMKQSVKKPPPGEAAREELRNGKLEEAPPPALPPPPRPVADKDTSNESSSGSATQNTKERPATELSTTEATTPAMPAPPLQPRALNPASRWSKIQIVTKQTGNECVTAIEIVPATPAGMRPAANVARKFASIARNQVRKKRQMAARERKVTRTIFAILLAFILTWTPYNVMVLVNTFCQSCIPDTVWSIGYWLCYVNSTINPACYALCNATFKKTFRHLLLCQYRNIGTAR
The assay is described as follows: Partial agonist activity at human muscarinic M4 acetylcholine receptor expressed in CHO cells co-expressing Galpha16 assessed as calcium mobilization at 0.3 uM by FLIPR assay.

In assay [5] the target is T4, Muscarinic acetylcholine receptor M2 (Homo sapiens) (UniProt P08172).
T4 sequence (whole entry): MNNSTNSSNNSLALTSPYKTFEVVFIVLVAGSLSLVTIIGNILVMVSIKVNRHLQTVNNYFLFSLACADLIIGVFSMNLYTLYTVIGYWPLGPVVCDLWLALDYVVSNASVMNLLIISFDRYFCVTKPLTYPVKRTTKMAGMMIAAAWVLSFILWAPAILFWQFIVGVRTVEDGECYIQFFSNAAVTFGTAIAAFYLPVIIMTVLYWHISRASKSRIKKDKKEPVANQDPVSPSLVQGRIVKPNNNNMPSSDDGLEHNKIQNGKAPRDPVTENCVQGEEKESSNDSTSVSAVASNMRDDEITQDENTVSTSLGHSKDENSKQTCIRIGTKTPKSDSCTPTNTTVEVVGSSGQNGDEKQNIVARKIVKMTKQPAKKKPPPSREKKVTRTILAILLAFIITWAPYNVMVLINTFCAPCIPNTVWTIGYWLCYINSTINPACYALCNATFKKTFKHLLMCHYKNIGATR
As to the kind of experiment: Agonist activity at human muscarinic M2 acetylcholine receptor expressed in CHO cells co-expressing Galpha16 assessed as calcium mobilization at 0.3 uM by FLIPR assay.

In assay [6] the target is T3, Muscarinic acetylcholine receptor M4 (Homo sapiens). As to the kind of experiment: Partial agonist activity at human muscarinic M4 acetylcholine receptor expressed in CHO cells co-expressing Galpha16 assessed as calcium mobilization at 30 uM by FLIPR assay.

Sequence of Muscarinic acetylcholine receptor M3 (Homo sapiens) (P20309 whole entry, looked up): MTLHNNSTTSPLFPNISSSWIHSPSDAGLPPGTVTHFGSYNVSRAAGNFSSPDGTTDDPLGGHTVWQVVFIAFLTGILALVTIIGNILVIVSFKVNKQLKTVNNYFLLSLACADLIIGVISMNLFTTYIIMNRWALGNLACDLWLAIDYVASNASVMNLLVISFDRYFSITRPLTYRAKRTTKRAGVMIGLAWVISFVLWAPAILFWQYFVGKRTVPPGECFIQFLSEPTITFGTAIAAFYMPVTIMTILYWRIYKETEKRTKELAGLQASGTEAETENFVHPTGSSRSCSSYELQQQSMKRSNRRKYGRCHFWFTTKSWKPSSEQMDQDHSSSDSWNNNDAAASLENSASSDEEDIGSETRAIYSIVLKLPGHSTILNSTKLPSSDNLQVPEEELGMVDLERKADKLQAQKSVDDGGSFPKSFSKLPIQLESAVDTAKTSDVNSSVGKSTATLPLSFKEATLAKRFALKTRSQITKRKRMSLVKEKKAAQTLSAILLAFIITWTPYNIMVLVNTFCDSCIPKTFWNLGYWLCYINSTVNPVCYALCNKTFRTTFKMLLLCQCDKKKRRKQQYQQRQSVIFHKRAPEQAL

As to `CCOC(=O)N1CCC(N2CCC(N3Cc4ccccc4NC3=O)CC2)CC1`, the Activity amounted to 86% in assay [1]; 21% in assay [2]; 31% in assay [3]; 114% in assay [4]; 66% in assay [5].

For `CCOC(=O)N1CCC(CN2CCC(N3Cc4ccccc4NC3=O)CC2)CC1`, the Activity was 82% in assay [1], 7% in assay [2], 66% in assay [4] and 39% in assay [5].

As for `CCOC(=O)N1CCC(CN2CC(N3Cc4ccccc4NC3=O)C2)CC1`, the Activity is 105% in assay [1], 1% in assay [2], 115% in assay [4] and 17% in assay [5].

Turning to `CCOC(=O)N1[C@@H]2CC[C@H]1C[C@H](CN1CC(N3Cc4ccccc4NC3=O)C1)C2`, the Activity in assay [1] was 87%; in assay [2], 1%; in assay [6], 65%; in assay [4] it was 64%; in assay [5], 12%.

Consider `CCOC(=O)N1CCC(CN2CC[C@H](N3Cc4ccccc4NC3=O)C2)CC1`, for which the Activity is 62% in assay [1], 3% in assay [2], 30% in assay [4] and 2% in assay [5].

With `CCOC(=O)N1CCC(CN2CC[C@@H](N3Cc4ccccc4NC3=O)C2)CC1`, the Activity in assay [1] is 95%; in assay [2], 2%; in assay [3] it was 3%; in assay [4], 91%; in assay [5], 53%.
